The target in one assay is T1, Cholecystokinin receptor (Rattus norvegicus, UniProt P30551+P30553).
T1 sequence (P30551 whole entry): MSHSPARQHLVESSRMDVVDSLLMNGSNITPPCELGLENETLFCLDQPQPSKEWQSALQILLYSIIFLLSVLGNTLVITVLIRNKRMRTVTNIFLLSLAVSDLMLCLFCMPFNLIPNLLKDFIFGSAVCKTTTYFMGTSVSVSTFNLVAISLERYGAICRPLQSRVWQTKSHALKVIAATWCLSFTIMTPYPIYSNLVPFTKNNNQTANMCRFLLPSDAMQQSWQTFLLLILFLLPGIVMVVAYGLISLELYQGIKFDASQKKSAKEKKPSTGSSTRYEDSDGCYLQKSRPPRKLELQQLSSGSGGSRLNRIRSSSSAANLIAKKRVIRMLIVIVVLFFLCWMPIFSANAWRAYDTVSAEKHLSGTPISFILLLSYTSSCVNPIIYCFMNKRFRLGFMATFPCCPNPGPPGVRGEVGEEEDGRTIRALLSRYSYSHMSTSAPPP
T1 sequence (P30553 whole entry): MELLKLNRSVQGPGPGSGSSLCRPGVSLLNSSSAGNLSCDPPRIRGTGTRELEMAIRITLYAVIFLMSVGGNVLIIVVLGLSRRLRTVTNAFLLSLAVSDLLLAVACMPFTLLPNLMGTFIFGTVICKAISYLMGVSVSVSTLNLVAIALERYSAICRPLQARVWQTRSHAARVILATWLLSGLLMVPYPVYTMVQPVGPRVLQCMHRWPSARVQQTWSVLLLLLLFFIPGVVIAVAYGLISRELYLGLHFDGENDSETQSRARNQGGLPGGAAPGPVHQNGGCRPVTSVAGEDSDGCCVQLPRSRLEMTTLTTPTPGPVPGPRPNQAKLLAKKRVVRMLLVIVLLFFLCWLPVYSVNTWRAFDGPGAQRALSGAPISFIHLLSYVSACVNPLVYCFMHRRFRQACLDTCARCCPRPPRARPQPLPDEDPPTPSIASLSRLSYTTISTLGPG
Kind of assay: Ability of compound to Inhibit the binding of [125I]BH-CCK-8 to Cholecystokinin receptor in isolated rat pancreatic acini. Format: protein assay.

For a further assay, the species on record is Rattus norvegicus. Kind of assay: Ability of compound to stimulate in vitro amylase release from rat pancreatic acini. Format: functional.
A short description of assay [1]: Ability of compound to Inhibit the binding of [125I]BH-CCK-8 to Cholecystokinin receptor in isolated guinea pig brain membranes.

Non-standard residues stand in square brackets, D forms with d. Residues, ends and D or L forms follow the SMILES beside them. *: point of attachment. sY = N[C@@H](Cc1ccc(OS(=O)(=O)O)cc1)C(=O)O; Nle = CCCC[C@H](N)C(=O)O; Boc = CC(C)(C)OC(=O)*

Take `CCCC[C@H](NC(=O)[C@H](Cc1ccc(OS(=O)(=O)O)cc1)NC(=O)C(CC(=O)O)NC(=O)OC(C)(C)C)C(=O)NCC(=O)N[C@H](Cc1c[nH]c2ccccc12)C(=O)N[C@@H](CCCC)C(=O)N[C@H](CC(=O)O)NC(=O)CCc1ccccc1` (some centres not stated): the IC50 on Cholecystokinin receptor is 100 nM; in assay [1], 40 nM. In addition, the EC50 in the assay listed under Rattus norvegicus turned out to be 130 nM.

`CCCC[C@H](NC(=O)[C@H](Cc1ccc(OS(=O)(=O)O)cc1)NC(=O)OC(C)(C)C)C(=O)NCC(=O)N[C@@H](Cc1c[nH]c2ccccc12)C(=O)N[C@@H](CCCC)C(=O)N[C@@H](CC(=O)O)C(=O)N[C@@H](Cc1ccccc1)NC=O`: the IC50 on Cholecystokinin receptor came to 500 nM; in assay [1] it was 30 nM. In the assay listed under Rattus norvegicus, this compound had an EC50 of 30 nM.

As for `CCCC[C@H](NC(=O)[C@H](Cc1ccc(OS(=O)(=O)O)cc1)NC(=O)OC(C)(C)C)C(=O)NCNC(=O)[C@H](Cc1c[nH]c2ccccc12)NC(=O)[C@H](CCCC)NC(=O)[C@H](CC(=O)O)NC(=O)CCc1ccccc1`, the half-maximal inhibitory concentration (IC50) at Cholecystokinin receptor was found to be 40 nM; in assay [1], 100 nM. It took 17 nM to reach a half-maximal effect in the assay listed under Rattus norvegicus (EC50).

As for `CCCC[C@H](NC(=O)[C@H](Cc1ccc(OS(=O)(=O)O)cc1)NC(=O)C(CC(=O)O)NC(=O)OC(C)(C)C)C(=O)NCC(=O)N[C@H](Cc1c[nH]c2ccccc12)C(=O)N[C@@H](CCCC)C(=O)N[C@H](CC(=O)O)NC(=O)[C@@H](Cc1ccccc1)C(N)=O` (some centres not stated), the half-maximal inhibitory concentration (IC50) at Cholecystokinin receptor came out at 100 nM; in assay [1] it was 10 nM. Further, in the assay filed under Rattus norvegicus, the EC50 was 0.7 nM.

Turning to `CCCC[C@@H](NC(=O)CC(=O)N[C@H](Cc1c[nH]c2ccccc12)C(=O)N[C@@H](CCCC)C(=O)N[C@H](CC(=O)O)C(=O)N[C@@H](Cc1ccccc1)C(N)=O)NC(=O)[C@H](Cc1ccc(OS(=O)(=O)O)cc1)NC(=O)C(CC(=O)O)NC(=O)OC(C)(C)C` (some centres not stated), the IC50 on Cholecystokinin receptor was 500 nM; in assay [1], 2 nM. In the assay listed under Rattus norvegicus, this compound yielded an EC50 of 6 nM.

In turn, `CCCC[C@H](NC(=O)[C@H](Cc1ccc(OS(=O)(=O)O)cc1)NC(=O)OC(C)(C)C)C(=O)NCC(=O)N[C@@H](Cc1c[nH]c2ccccc12)C(=O)N[C@@H](CCCC)C(=O)N[C@@H](CC(=O)O)C(=O)N[C@@H](Cc1ccccc1)C(N)=O` (Boc-[sY][Nle]GW[Nle]DF-NH2) returned a 50% effective concentration (EC50) in the assay filed under Rattus norvegicus of 0.05 nM.

Turning to `CCCC[C@H](NC(=O)[C@H](Cc1ccc(OS(=O)(=O)O)cc1)NC(=O)OC(C)(C)C)C(=O)NCC(=O)N[C@H](Cc1c[nH]c2ccccc12)C(=O)N[C@@H](CCCC)C(=O)N[C@@H](CC(=O)O)C(=O)N[C@@H](Cc1ccccc1)NC=O`, the IC50 was 4000 nM at Cholecystokinin receptor and 100 nM in assay [1]. In the assay filed under Rattus norvegicus, this compound had an EC50 of 1700 nM.

As for `CCCC[C@H](NC(=O)[C@H](Cc1ccc(OS(=O)(=O)O)cc1)NC(=O)OC(C)(C)C)C(=O)NCNC(=O)[C@H](Cc1c[nH]c2ccccc12)NC(=O)[C@H](CCCC)NC(=O)[C@H](CC(=O)O)NC(=O)[C@@H](Cc1ccccc1)C(N)=O`, the half-inhibitory concentration (IC50) at Cholecystokinin receptor came to 20 nM; in assay [1], 1000 nM. Further, in the assay filed under Rattus norvegicus, the EC50 was determined as 30 nM.

(Values after ChEMBL document CHEMBL1124355, “Synthesis and biological activity of some partially modified retro-inverso analogues of cholecystokinin” (J Med Chem, 1989).)
